Experimental data reported in patent US11840686B2, “Modulation of prekallikrein (PKK) expression” (Ionis Pharmaceuticals, Inc., priority 2013, dated 2023).
Strand notation (5' to 3'): a small letter for the sugar, then the base; units joined by * are phosphorothioate-linked, units joined directly phosphodiester-linked; [ ] holds rarer units or linkages, { } end groups; capitals alone tell only the bases. e = 2'-O-(2-methoxyethyl) (MOE); [5mC] = 5-methylcytosine; d = 2'-deoxy (DNA)

Columns and labels:
[1] = Hematological parameters in cynomolgus monkeys (Example 8); settings: cynomolgus monkey, 40 mg/kg sc, day 87 or day 88
[2] = Kidney function: plasma BUN and creatinine in cynomolgus monkeys (Example 8)
Method: Prior to the study, the monkeys were kept in quarantine for a 30-day period, during which the animals were observed daily for general health. The monkeys were 2-4 years old and weighed between 2 and 4 kg. Ten groups of four randomly assigned male cynomolgus monkeys each were injected subcutaneously with ISIS oligonucleotide or PBS. PBS solution or ISIS oligonucleotides at a dose of 40 mg/kg were administered initially with a loading regimen consisting of four doses on the first week of the study (days 1, 3, 5, and 7), followed by a maintenance regimen consisting of once weekly administration starting on Day 14 (weeks 2 to 13). Subcutaneous injections were performed in clock-wise rotations at 4 sites on the back; one site per dose. The injection sites were delineated by tattoo, while sedated using ketamine, and were separated by a minimum of 3 cm.
To evaluate the effect of ISIS oligonucleotides on kidney function, the monkeys were fasted overnight. Approximately, 1.5 mL of blood samples were collected from all the study groups. Blood was collected in tubes without anticoagulant for serum separation. The tubes were kept at room temperature for a minimum of 90 min and then centrifuged at 3,000 rpm for 10 min. Levels of BUN and creatinine were measured using a Toshiba 120FR NEO chemistry analyzer (Toshiba Co., Japan).

[3] = tested on: vascular permeability induced by ISIS 461756; assay: C1-INH antisense oligonucleotide-induced vascular permeability, Evans Blue OD600 (Example 18); assay type: in vivo, mouse
Method: (§1) Vascular permeability induced by ISIS 461756, an antisense oligonucleotide which targets murine C1 inhibitor mRNA, increases vascular permeability in mice and replicates the pathology of hereditary angioedema. The effect of ISIS 482584 on this model was evaluated.
(§2) One group of 8 mice was treated with 40 mg/kg ISIS 482584 administered subcutaneously twice a week for 3 weeks (weekly dose of 80 mg/kg). A second group of 8 mice was treated with 40 mg/kg of the control oligonucleotide, ISIS 141923, administered subcutaneously twice a week for 3 weeks (weekly dose of 80 mg/kg). A third group of 8 mice was treated with PBS administered subcutaneously twice a week for 3 weeks. On day 14, all the groups were treated with 12.5 mg/kg ISIS 461756 administered subcutaneously twice a week for 3 weeks (weekly dose of 25 mg/kg). A control group of mice was treated with PBS administered subcutaneously twice a week for 3 weeks but was not administered ISIS 461756.
(§3) At the end of the treatment period, all the groups were injected with 30 mg/kg of Evans Blue solution into the tail vein. The mice were sacrificed 30 min after the Evans Blue solution administration and colons, feet, ears, and intestines were harvested. The liver was also harvested for RNA analysis.
The harvested tissues from the feet, colon, and intestines were placed in formamide solution overnight to leach out the Evans Blue dye. The formamide solution containing feet tissue was heated to 55° C. and left overnight. The color intensity of the dye-infused formamide solution was then measured at OD600 nm. The data is presented in Table 80 as percent increase or reduction compared to the PBS control not treated with ISIS 461756.

[4] = tested on: high molecular weight kininogen (HMWK); assay: Western blot quantification of HMWK and HMWK cleavage product by densitometer (Example 14); assay type: in vivo, mouse; settings: for Quantification of HMWK by densitometer / Quantification of HMWK cleavage product by densitometer: Western blot of blood samples, basal model
Excerpt: Treatment with PKK antisense oligonucleotide results in stabilization of HMWK. Thus, vascular permeability is reduced in ISIS 482584-treated groups in a dose-dependent manner. […] Thus, reduced HMWK is caused by PKK cleavage of HMWK into cleavage products (including bradykinin and HKa). Data are presented in Intensity Units as measured by densitometer.

[5] = tested on: PKK mRNA; assay: PKK mRNA in liver of mice treated with ISIS 461756 (Example 18); assay type: in vivo, mouse
Method: as §1, §2, §3
RNA was isolated from the liver for RT-PCR analysis of C1-INH and PKK mRNAs. The primer probe set for C1-INH is RTS3218 (forward sequence […], designated herein as SEQ ID NO: 2234; reverse sequence […], designated herein as SEQ ID NO: 2235; probe sequence […], designated herein as SEQ ID NO: 2236). The primer probe set for PKK is RTS3287 (forward sequence […], designated herein as SEQ ID NO: 2237; reverse sequence […], designated herein as SEQ ID NO: 2238; probe sequence […], designated herein as SEQ ID NO: 2239). The results are presented in Table 79 as percent inhibition compared to the PBS control not treated with ISIS 461756.

[6] = Evans Blue OD600, all groups ISIS 461756 25 mg/kg/wk, pretreatment PBS or oligonucleotide 80 mg/kg/wk

Substance “Tes Ges mCes Aes Aes Gds Tds mCds Tds mCds Tds Tds Gds Gds mCds Aes Aes Aes mCes Ae [ISIS 546254]” has an HCT [1] of 41%, a Hemoglobin [1] of 12.4 g/dL and a Platelets [1] of 436000 µL⁻¹. The RBC [1] was 5.3e+06 µL⁻¹, the WBC [1] was 11000 µL⁻¹ and the “Plasma BUN” value ([2]; 40 mg/kg s.c.) was 25.7 mg/dL. The “Plasma Creatinine” value ([2]; 40 mg/kg s.c.) was 0.9 mg/dL and the “effect on kidney function” value ([2]; plasma chemistry) was “well tolerated in terms of the kidney function”.

For “ISIS 482584: 5-10-5 MOE gapmer targeting murine PKK, GGCATATTGGTTTTTGGAAT; SEQ ID NO: 2244 (antisense eG*eG*e[5mC]*eA*eT*dA*dT*dT*dG*dG*dT*dT*dT*dT*dT*eG*eG*eA*eA*eT)”, the “vascular permeability induced by ISIS 461756” value ([3]; 40 mg/kg s.c. twice a week for 3 weeks) was “prevented vascular permeability induced by ISIS 461756”, the “Percent change in vascular permeability compared to the untreated PBS control, Colon” value [3, 6] was −23% and the “Percent change in vascular permeability compared to the untreated PBS control, Feet” value [3, 6] was 2%. For the same substance, the “Percent change in vascular permeability compared to the untreated PBS control, Intestines” value [3, 6] was −25%, the “Quantification of HMWK by densitometer” value ([4]; 10 mg/kg/week) was 507 Intensity Units and the “Quantification of HMWK cleavage product by densitometer” value ([4]; 10 mg/kg/week) was 414774 Intensity Units. For the same substance, the “Quantification of HMWK by densitometer” value ([4]; 20 mg/kg/week) was 608 Intensity Units, the “Quantification of HMWK cleavage product by densitometer” value ([4]; 20 mg/kg/week) was 403360 Intensity Units and the “Quantification of HMWK by densitometer” value ([4]; 40 mg/kg/week) was 873 Intensity Units. For the same substance, the “Quantification of HMWK cleavage product by densitometer” value ([4]; 40 mg/kg/week) was 388135 Intensity Units, the “Quantification of HMWK by densitometer” value ([4]; 80 mg/kg/week) was 7279 Intensity Units and the “Quantification of HMWK cleavage product by densitometer” value ([4]; 80 mg/kg/week) was 204482 Intensity Units. The “Quantification of HMWK by densitometer” value ([4]; 160 mg/kg/week) was 21358 Intensity Units, the “Quantification of HMWK cleavage product by densitometer” value ([4]; 160 mg/kg/week) was 19936 Intensity Units and the “HMWK cleavage product” value ([4]; vs PBS control, dose-dependent) was “lower HMWK cleavage product”. The “levels of HMWK” value ([4]; vs PBS control, dose-dependent) was “higher levels of HMWK”, the “Percent inhibition of PKK mRNA expression compared to the untreated PBS control” value ([5]; liver, all groups ISIS 461756 25 mg/kg/wk, pretreatment PBS or oligonucleotide 80 mg/kg/wk sc 3 weeks) was 78% and the “PKK expression” value ([5]; mouse liver, 40 mg/kg s.c. twice a week for 3 weeks) was “significantly reduced PKK expression”.
